Experimental data reported in patent US20260098026A1, “M4 ACTIVATORS/MODULATORS AND USES THEREOF” (Cerevel Therapeutics, LLC, priority 2022, published 2026).

Key:
Format in all cases: cell-based
[1] = target: T1, M5 muscarinic acetylcholine receptor (mAChR) (Homo sapiens, UniProt P08912); test: FLIPR calcium assay (Fluo 8), M5-overexpressing CHO-K1 cells
T1 construct: expressed in transfected cells; host or cells: CHO-K1
T1 sequence (P08912 1-532): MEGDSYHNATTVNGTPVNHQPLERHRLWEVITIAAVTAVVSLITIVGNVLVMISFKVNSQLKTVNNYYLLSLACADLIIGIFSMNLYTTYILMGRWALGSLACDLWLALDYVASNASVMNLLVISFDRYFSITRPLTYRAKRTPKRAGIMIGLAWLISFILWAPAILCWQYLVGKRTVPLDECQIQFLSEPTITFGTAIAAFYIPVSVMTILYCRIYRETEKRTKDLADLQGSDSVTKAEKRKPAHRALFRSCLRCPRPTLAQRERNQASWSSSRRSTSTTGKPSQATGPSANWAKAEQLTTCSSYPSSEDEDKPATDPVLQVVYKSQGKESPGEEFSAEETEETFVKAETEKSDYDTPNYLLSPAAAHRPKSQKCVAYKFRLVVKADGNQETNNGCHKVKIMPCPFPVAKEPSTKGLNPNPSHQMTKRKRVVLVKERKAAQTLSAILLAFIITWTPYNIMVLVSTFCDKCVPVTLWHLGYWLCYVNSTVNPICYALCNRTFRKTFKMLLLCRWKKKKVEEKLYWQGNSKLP
Experimental: (§1) Stimulation of a Gq-coupled G-protein coupled receptors (GPCRs), result in an efflux of calcium from the endoplasmic reticulum to the cytoplasm (Berridge, 1993), thus rendering this assay appropriate for the assessment of M1, M3 and M5 receptors. CHO-K1 cells overexpressing the M1, M3, or M5 muscarinic acetylcholine receptor (mAChR) were dispensed at 15,000 cells per well in 30 μl volume to 384-well plates and grown overnight at 37° C. in a 5% CO2 atmosphere. Fluo-8 Solution, 10 μl per well, was added to each well and incubated for 30 minutes at 37° C. in a 5% CO2 atmosphere. Compounds diluted in Hanks' balanced salt solution (HBSS) were transferred to the cell assay plate at 10 μl per well, and then read on a FLIPR instrument. EC50 and Emax figures were calculated from the resulting data for each receptor subtype.

[2] = target: T2, M3 muscarinic acetylcholine receptor (mAChR) (Homo sapiens, UniProt P20309); test: FLIPR calcium assay (Fluo 8), M3-overexpressing CHO-K1 cells
T2 construct: expressed in transfected cells; host or cells: CHO-K1
Summary of the method: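 CHO-K1 cells overexpressing each human receptor seeded at 15,000 per well, grown overnight at 37° C., 5% CO2, then loaded with Fluo-8 for 30 min. Compounds in HBSS added and calcium response read on FLIPR; EC50 and Emax calculated per subtype.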

M4 mAChR = target: T3, M4 mAChR (Homo sapiens, UniProt P08173); test: cAMP TR-FRET assay with forskolin, M4-overexpressing CHO-K1 cells
T3 construct: expressed in transfected cells; host or cells: CHO-K1
T3 sequence (P08173 1-479): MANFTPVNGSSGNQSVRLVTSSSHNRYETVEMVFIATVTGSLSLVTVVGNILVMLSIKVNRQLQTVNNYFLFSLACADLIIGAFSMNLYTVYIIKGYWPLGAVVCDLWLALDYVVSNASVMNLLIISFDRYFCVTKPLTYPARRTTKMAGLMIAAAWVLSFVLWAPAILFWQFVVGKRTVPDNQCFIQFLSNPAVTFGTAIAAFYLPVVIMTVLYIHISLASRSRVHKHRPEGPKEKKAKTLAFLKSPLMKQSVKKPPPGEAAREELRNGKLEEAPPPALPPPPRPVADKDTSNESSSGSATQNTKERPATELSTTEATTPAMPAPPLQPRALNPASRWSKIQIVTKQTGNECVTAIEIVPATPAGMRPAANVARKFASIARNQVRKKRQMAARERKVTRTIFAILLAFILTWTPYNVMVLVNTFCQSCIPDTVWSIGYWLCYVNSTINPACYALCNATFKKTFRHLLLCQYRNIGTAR
Summary of the method: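 CHO-K1 cells overexpressing the receptor were stimulated with forskolin to raise cAMP, so that Gi-mediated agonist decreases could be measured. cAMP was quantified by TR-FRET competition between cellular cAMP and labelled donor for anti-cAMP antibody, giving potency and efficacy.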

M2 mAChR = target: T4, M2 mAChR (Homo sapiens, UniProt P08172); test: cAMP TR-FRET assay with forskolin, M2-overexpressing CHO-K1 cells
T4 construct: expressed in transfected cells; host or cells: CHO-K1
T4 sequence (P08172 1-466): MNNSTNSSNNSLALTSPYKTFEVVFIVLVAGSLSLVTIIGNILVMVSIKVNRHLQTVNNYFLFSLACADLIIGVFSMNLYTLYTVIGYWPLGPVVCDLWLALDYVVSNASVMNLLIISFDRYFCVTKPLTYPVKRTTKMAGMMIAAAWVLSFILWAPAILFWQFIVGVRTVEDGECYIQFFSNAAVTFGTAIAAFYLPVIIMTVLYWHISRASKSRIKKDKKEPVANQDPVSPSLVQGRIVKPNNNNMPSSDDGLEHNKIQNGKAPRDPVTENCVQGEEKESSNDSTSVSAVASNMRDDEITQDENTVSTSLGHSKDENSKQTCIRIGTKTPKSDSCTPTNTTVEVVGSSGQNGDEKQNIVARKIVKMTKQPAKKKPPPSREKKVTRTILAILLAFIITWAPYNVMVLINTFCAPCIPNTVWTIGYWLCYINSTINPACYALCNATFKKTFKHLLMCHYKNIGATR
Description: The M2 and M4 mACh receptors are Gi-coupled receptors which, upon activation, produce a decrease in cAMP. Assays were developed that measured the potency and efficacy of compounds at the M2 or M4 mAChR using M2- or M4-overexpressing CHO-K1 cell lines. Time-resolved fluorescence resonance energy transfer (TR-FRET) technology was used, where signal occurs as a result of transfer of energy if the donor molecule is in close proximity to an acceptor molecule when the molecules have bound to the molecule of interest. The cAMP detection is a competition binding assay, where cAMP produced by cells competes for binding with the labeled donor molecule to the anti-cAMP acceptor antibody. Due to the low basal levels of cAMP in the CHO-K1 cell line, forskolin was used to increase cAMP levels to enable assessment of agonist activity at the mAChR of interest.

[3] = target: T5, M1 muscarinic acetylcholine receptor (mAChR) (Homo sapiens, UniProt P11229); test: FLIPR calcium assay (Fluo 8), M1-overexpressing CHO-K1 cells
T5 construct: expressed in transfected cells; host or cells: CHO-K1
T5 sequence (P11229 1-460): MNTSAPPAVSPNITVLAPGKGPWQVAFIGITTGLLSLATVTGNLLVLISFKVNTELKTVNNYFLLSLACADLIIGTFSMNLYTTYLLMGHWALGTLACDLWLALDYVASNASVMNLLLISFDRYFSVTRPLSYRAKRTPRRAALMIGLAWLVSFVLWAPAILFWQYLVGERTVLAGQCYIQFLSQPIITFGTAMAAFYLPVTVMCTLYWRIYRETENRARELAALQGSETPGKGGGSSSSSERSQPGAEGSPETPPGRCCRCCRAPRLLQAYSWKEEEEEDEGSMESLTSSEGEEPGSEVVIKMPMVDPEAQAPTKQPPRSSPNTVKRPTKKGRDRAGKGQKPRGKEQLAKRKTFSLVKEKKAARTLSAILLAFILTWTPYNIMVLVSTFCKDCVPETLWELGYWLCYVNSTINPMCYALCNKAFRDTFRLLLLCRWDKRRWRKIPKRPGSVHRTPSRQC
Experimental: as §1

T2 sequence (P20309 whole entry): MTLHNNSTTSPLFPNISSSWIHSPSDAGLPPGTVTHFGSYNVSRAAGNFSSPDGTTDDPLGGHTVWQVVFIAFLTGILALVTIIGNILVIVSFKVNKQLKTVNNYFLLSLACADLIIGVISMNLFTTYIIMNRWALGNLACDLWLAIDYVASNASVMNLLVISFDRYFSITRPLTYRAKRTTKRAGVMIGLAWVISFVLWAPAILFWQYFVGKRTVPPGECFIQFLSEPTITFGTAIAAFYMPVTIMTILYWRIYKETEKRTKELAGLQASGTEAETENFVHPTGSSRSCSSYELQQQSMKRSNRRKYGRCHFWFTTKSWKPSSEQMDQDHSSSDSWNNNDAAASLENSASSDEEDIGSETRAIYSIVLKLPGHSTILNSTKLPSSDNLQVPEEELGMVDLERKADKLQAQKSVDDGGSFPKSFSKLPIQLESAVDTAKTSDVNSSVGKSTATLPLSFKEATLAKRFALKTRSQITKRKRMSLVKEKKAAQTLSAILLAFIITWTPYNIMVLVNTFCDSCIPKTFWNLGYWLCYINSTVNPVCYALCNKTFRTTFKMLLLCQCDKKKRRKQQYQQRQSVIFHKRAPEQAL

Emax ([1]; FLIPR calcium) [%] | EC50 ([2]; FLIPR calcium) [µM] | Emax (M4 mAChR; cAMP TR-FRET with forskolin) [%] | EC50 ([2]; FLIPR) [µM] | Emax (M4 mAChR; cAMP assay) [%] | SMILES | also measured
19 to 49.9 | > 10 | 80 to 100 | – | – | CCOC(=O)N1CC2(CC[C@@H](N3CCN(c4cccnc4-c4cncc(OC)c4)CC3)C2)C1 [Compound A1, ethyl (6R)-6-[4-[2-(5-methoxy-3-pyridyl)-3-pyridyl]piperazin-1-yl]-2-azaspiro[3.4]octane-2-carboxylate] | –
– | > 10 | 80 to 100 | – | – | CCOC(=O)N1CC2(CC[C@@H](N3CCN(c4cc(F)cnc4C4CCOCC4)CC3)C2)C1 [Compound A7, ethyl (6R)-6-[4-(5-fluoro-2-tetrahydropyran-4-yl-3-pyridyl)piperazin-1-yl]-2-azaspiro[3.4]octane-2-carboxylate] | M2 EC50 (nM) (M2 mAChR; cAMP TR-FRET with forskolin): I.A
19 to 49.9 | > 10 | 80 to 100 | – | – | CCOC(=O)N1CC2(CC[C@@H](N3CCN(c4cc(F)cnc4-c4cnc(SC)nc4)CC3)C2)C1 [Compound A63] | Emax ([3]; FLIPR calcium): 19 to 49.9%
19 to 49.9 | > 10 | 80 to 100 | – | – | CCOC(=O)N1CC2(CC[C@@H](N3CCN(c4cc(F)cnc4-c4cnn(CC(C)C)c4)CC3)C2)C1 [Compound A71] | –
19 to 49.9 | > 10 | 80 to 100 | – | – | CCOC(=O)N1CC2(CC[C@@H](N3CCN(c4cc(F)cnc4-c4cnn(CC)c4)CC3)C2)C1 [Compound A74] | –
19 to 49.9 | > 10 | 80 to 100 | – | – | CCNc1ncc(-c2ncc(F)cc2N2CCN([C@@H]3CCC4(C3)CN(C(=O)OCC)C4)CC2)cn1 [Compound A80] | Emax ([3]; FLIPR calcium): 19 to 49.9%
19 to 49.9 | > 10 | 80 to 100 | – | – | CCOC(=O)N1CC2(CC[C@@H](N3CCN(c4cc(F)cnc4-c4ccc(CO)o4)CC3)C2)C1 [Compound A91] | –
– | – | – | > 10 | 80 to 100 | CCOC(=O)N1CC2(CC[C@@H](N3CCN(c4cc(F)cnc4-c4cnc(O)c(C)c4)CC3)C2)C1 [Compound A166] | Emax ([1]; FLIPR): 19 to 49.9%
– | – | – | > 10 | 80 to 100 | CCOC(=O)N1CC2(CC[C@@H](N3CCN(c4cc(F)cnc4-c4cnn(C(F)F)c4)CC3)C2)C1 [Compound A194] | Emax (M2 mAChR; cAMP assay): < 19%
– | – | – | > 10 | 80 to 100 | CCOC(=O)N1CC2(CC[C@@H](N3CCN(c4cc(F)cnc4-c4c[nH]c(=O)c(F)c4)CC3)C2)C1 [Compound A206] | Emax ([1]; FLIPR): 19 to 49.9%; Emax ([3]; FLIPR): 19 to 49.9%
– | – | – | > 10 | 80 to 100 | CCOC(=O)N1CC2(CC[C@@H](N3CCN(c4cc(F)cnc4-c4ccc(=O)[nH]c4)CC3)C2)C1 [Compound A210] | Emax ([1]; FLIPR): 19 to 49.9%; Emax ([3]; FLIPR): 50 to 79.9%
